The conditions of series [1]: descriptive term; cited from earlier work.
For series [2], the system named is E. coli (ATCC 8739). The experiment in a line: Antimicrobial preservative effectiveness test (USP 32 <51>). Format: cell-based, Escherichia coli. As to conditions: for cfu/mL 0 h / cfu/mL 24 h / cfu/mL 48 h: approx. 22.5° C. The procedure:
(§1) An antimicrobial preservative effectiveness test in analogy to that of USP 32 <51> was carried out. Sample vials comprising […] or F6H8, respectively, were inoculated with Escherichia coli, Pseudomonas aeruginosa, Staphylococcus aureus, Candida albicans and Aspergillus niger and incubated at approx. 22.5° C.

Series [3] in a line: Contact angle (wetting) on compressed drug tablets.
Series [4] deals with rabbit eyes (cornea).
Description: (§2) The physiological tolerability of this solution was evaluated in an ex-vivo eye irritation test (EVEIT) using rabbit eyes taken from freshly sacrificed animals. The eyes were fastened in chambers coupled micropump systems which continuously supplied the eyes with cultivation medium (Minimal Essential Medium, MEM T031-OS) without fetal calf serum. The vitality of the eyes was monitored by regularly measuring the concentration of lactate and glucose in the chamber eluate. The corneal surface of the eyes was damaged by abrasion, using a dental ceramic abrasive (638XF, Meisinger). For each eye, four lesions of 3.0 to 4.5 mm^2 were prepared.
(§3) To evaluate the effect of F4H5 and F4H5 with 1 wt.-% ethanol on the cornea, an amount of approx. 0.25 to 0.50 μl of the respective test substance was dropped onto the centre of a cornea once every hour over a period of 12 hours, followed by a 12 hour resting period in which the cornea was submersed in culture medium to simulate a closed lid during a night phase. In addition, an aqueous solution of hyaluronic acid (0.1 wt.-%) was used as reference (hyaluronic acid is know to enhance the restoration of the corneal surface after damage), culture medium was used as control, and aqueous benzalkonium chloride solution (0.01 wt.-%) was used as negative control. Each test was performed over a period of 3 days. The effects were observed by optical coherence tomography (OCT), by digitally determining the dimensions of the lesions after staining with fluorescein, and finally by a histological evaluation of the corneal epithelium and endothelium at the end of each experiment.
(§4) Each of the two vehicles was tested in two separate runs.
In series [5] the test system is C. albicans (ATCC 10231). Briefly: Antimicrobial preservative effectiveness test (USP 32 <51>). Type of series: cell-based, Candida albicans. Conditions: for cfu/mL 0 h / cfu/mL 24 h / cfu/mL 48 h: approx. 22.5° C. The procedure:
as §1

Series [6] deals with S. aureus (ATCC 6538). Described as above. Type of series: cell-based, Staphylococcus aureus. As to conditions: for cfu/mL 0 h / cfu/mL 24 h / cfu/mL 48 h: approx. 22.5° C. The procedure: as §1
The test system of series [7] is A. niger (ATCC 16404). Described as above. Format: cell-based, Aspergillus niger. Conditions: for cfu/mL 0 h / cfu/mL 24 h / cfu/mL 48 h / cfu/mL 6 d: approx. 22.5° C. As for the experimental part:
as §1

Series [8] is described as follows: Droplet size (weight and volume) from three droppers. Type of series: physicochemical. As to conditions: 25° C.; for droplet volume, Glass pipette / droplet weight, Glass pipette: 2 mL glass Pasteur pipette; for droplet volume, Glass pipette / droplet volume, Injection needle / droplet volume, Eye dropper: calculated from weight; for droplet weight, Glass pipette / droplet weight, Injection needle / droplet weight, Eye dropper: mean ± SD of 10; for droplet volume, Injection needle / droplet weight, Injection needle: 20 G injection needle; for droplet volume, Eye dropper / droplet weight, Eye dropper: dropper of commercial eye drops (Hylo-Vision). As for the experimental part: The droplet size of selected SFA's in terms of weight and volume of droplets from three droppers was determined and compared to that of purified water. The devices used for dispensing the droplets were (a) a 2 mL Pasteur pipette (wall thickness 0.53 mm; external tip diameter: 1.50 mm; length: 150 mm) made of glass, (b) a 20 G (0.9 mm×50 mm) injection needle, and (c) a dropper from a commercial eye drops product (Hylo-Vision). The droplet weights were measured at 25° C. using a laboratory balance; the volumes were calculated. Each test was performed 10 times.

The subject of series [9] is P. aeruginosa (ATCC 9027). Briefly: Antimicrobial preservative effectiveness test (USP 32 <51>). Type of series: cell-based, Pseudomonas aeruginosa. Conditions: for cfu/mL 0 h / cfu/mL 24 h / cfu/mL 48 h: approx. 22.5° C. As for the experimental part:
as §1

Series [10] in a line: Refractive index. Format: physicochemical. Conditions: selected SFA's, neat.
For series [11] the following is noted: typical values for comparison; water at room temperature (RT); cited from earlier work.
Series [12] is described as follows: Solubility of latanoprost in F4H5/ethanol by HPLC. Type of series: physicochemical. Conditions: F4H5/ethanol mixture (99:1 by weight), organic solvent or mixture, thermodynamic from solid; in mixture of F4H5 and ethanol (ratio 99:1 by weight). The procedure: In a separate experiment, the solubility of latanoprost in a mixture of F4H5 and ethanol (ratio 99:1 by weight) was determined by HPLC according to Ph.Eur.2.2.29 after rotation evaporation of the solvent methyl acetate in vacuo, addition of the solvent under examination of the residue and determination of the dissolved amount.

Series [13] has as its system rabbit eyes (cornea). The experiment in a line: Ex-vivo eye irritation test (EVEIT), corneal lesions by abrasion.
Description: as §2, §3, §4
Where [14] appears, read: on fenofibrate tablet (150 mg, 15-20 kN, 13 mm).
[15] abbreviates: on trospium chloride tablet (150 mg, 15-20 kN, 13 mm).

One may read the solubility as the dissolved amount per volume that the medium holds.

Where “and” joins values, the source holds several entries; their conditions need not be identical. Equal values may be shown once. Read-outs that look alike come from different tables or passages of the source. A value given as a limit tells only on which side of the number the result lay.

As to `CCNC(=O)CCC/C=C\C[C@@H]1[C@@H](/C=C/[C@@H](O)CCc2ccccc2)[C@H](O)C[C@@H]1O` [Bimatoprost, (Z)-7-[(1R,2R,3R,5S)-3,5-Dihydroxy-2-[(1E,3S)-3-hydroxy-5-phenyl-1-pentenyl]cyclopentyl]-N-ethyl-5-heptenamide], the solubility in water entry in [1] is “slightly soluble”.
On to `CCCCCC(F)(F)C(F)(F)C(F)(F)C(F)(F)F` [Example F4H5], for which, in [2], the “cfu/mL 0 h” value is reported as 1 600 cfu/mL, the “Change in log steps 24 h” value was not above −1.2 log steps, the “cfu/mL 24 h” value is less than 100 cfu/mL and the “Change in log steps 48 h” value was not above −1.2 log steps. Further, the “cfu/mL 48 h” value in [2] is given as less than 100 cfu/mL. The contact angle entry in [3] (setting [14]) is on record as “not measurable”. Also, in [3] (setting [15]), the contact angle entry is given as “not measurable”. Also, in series [4], the “morphological and histological evaluation of cornea” value was “entirely clear at the end of the tests, with healthy and smooth surface morphology”; the “penetration into the cornea (OCT imaging)” value is “no indication of penetration”; the “tolerability by the eye” value is given as “better tolerated than culture medium”. For the same compound, in series [5], the “cfu/mL 0 h” value is 1 500 cfu/mL, the “Change in log steps 24 h” value was not above −1.2 log steps, the “cfu/mL 24 h” value was less than 100 cfu/mL and the “Change in log steps 48 h” value is reported as not above −1.1 log steps. Also, the “cfu/mL 48 h” value in series [5] was less than 100 cfu/mL. For the same compound, in series [6], the “cfu/mL 0 h” value was 2 900 cfu/mL, the “Change in log steps 24 h” value was not above −1.4 log steps, the “cfu/mL 24 h” value was less than 100 cfu/mL and the “Change in log steps 48 h” value is on record as not above −1.4 log steps. Besides, in [6], the “cfu/mL 48 h” value is less than 100 cfu/mL. In [7], the “cfu/mL 0 h” value is reported as 3 000 cfu/mL, the “Change in log steps 24 h” value is recorded as not above −1.4 log steps, the “cfu/mL 24 h” value is less than 100 cfu/mL and the “Change in log steps 48 h” value is not above −1.2 log steps. Also, in series [7], the “cfu/mL 48 h” value was less than 100 cfu/mL, the “Change in log steps 6 d” value is listed as not above −1.2 log steps and the “cfu/mL 6 d” value is less than 100 cfu/mL. In [8], the “droplet volume, Glass pipette” value was 4.7 ± 0.3 µL; the “droplet weight, Glass pipette” value turned out to be 6.0 ± 0.4 mg; the “droplet volume, Injection needle” value is 2.0 ± 0.3 µL; the “droplet weight, Injection needle” value stood at 2.6 ± 0.4 mg. Moreover, in series [8], the “droplet volume, Eye dropper” value is 9.6 ± 0.2 µL and the “droplet weight, Eye dropper” value turned out to be 12.4 ± 0.2 mg. Besides, in series [9], the “cfu/mL 0 h” value is recorded as 1 600 cfu/mL, the “Change in log steps 24 h” value is not above −1.2 log steps, the “cfu/mL 24 h” value is less than 100 cfu/mL and the “Change in log steps 48 h” value is reported as not above −1.2 log steps. Further, the “cfu/mL 48 h” value in series [9] is listed as less than 100 cfu/mL. Further, the Refractive index in [10] was 1,3204.
`CCCCCCCCC(F)(F)C(F)(F)C(F)(F)C(F)(F)C(F)(F)C(F)(F)F` [Example F6H8]: in [2], the “cfu/mL 0 h” value is recorded as 1 600 cfu/mL, the “Change in log steps 24 h” value is reported as not above −1.2 log steps, the “cfu/mL 24 h” value was less than 100 cfu/mL and the “Change in log steps 48 h” value is not above −1.2 log steps. The “cfu/mL 48 h” value in series [2] is given as less than 100 cfu/mL. Also, in [3] (setting [14]), the contact angle entry is listed as “not measurable”. Besides, the contact angle result in series [3] (setting [15]) is listed as “not measurable”. In addition, in series [4], the “Change of lesion size” value is reported as −100.0%; the “Final size of corneal lesions” value is 0.00 mm^2; the “healing of corneal lesions” value is listed as “all lesions healed fully”; the “morphological and histological evaluation of cornea” value was “dense stromata with very few clefts and well-arranged keratocytes”. Also, in series [5], the “cfu/mL 0 h” value is given as 1 500 cfu/mL, the “Change in log steps 24 h” value is listed as not above −1.2 log steps, the “cfu/mL 24 h” value is on record as less than 100 cfu/mL and the “Change in log steps 48 h” value is given as not above −1.1 log steps. In [5], the “cfu/mL 48 h” value was less than 100 cfu/mL. Also, in series [6], the “cfu/mL 0 h” value is recorded as 2 900 cfu/mL, the “Change in log steps 24 h” value was not above −1.4 log steps, the “cfu/mL 24 h” value was less than 100 cfu/mL and the “Change in log steps 48 h” value was not above −1.4 log steps. In addition, the “cfu/mL 48 h” value in series [6] was less than 100 cfu/mL. For the same compound, in series [7], the “cfu/mL 0 h” value is listed as 1 500 cfu/mL, the “Change in log steps 24 h” value is not above −1.2 log steps, the “cfu/mL 24 h” value is less than 100 cfu/mL and the “Change in log steps 48 h” value is not above −1.2 log steps. In addition, in series [7], the “cfu/mL 48 h” value is less than 100 cfu/mL, the “Change in log steps 6 d” value is listed as not above −1.2 log steps and the “cfu/mL 6 d” value was less than 100 cfu/mL. Besides, in series [8], the “droplet volume, Glass pipette” value is 5.0 ± 0.4 µL; the “droplet weight, Glass pipette” value stood at 6.6 ± 0.6 mg; the “droplet volume, Injection needle” value is 2.5 ± 0.1 µL; the “droplet weight, Injection needle” value is given as 3.4 ± 0.2 mg. Also, in series [8], the “droplet volume, Eye dropper” value is 10.3 ± 0.3 µL and the “droplet weight, Eye dropper” value was 13.7 ± 0.4 mg. Besides, in series [9], the “cfu/mL 0 h” value is recorded as 1 600 cfu/mL, the “Change in log steps 24 h” value is not above −1.2 log steps, the “cfu/mL 24 h” value is on record as less than 100 cfu/mL and the “Change in log steps 48 h” value is on record as not above −1.2 log steps. For the same compound, the “cfu/mL 48 h” value in series [9] is on record as less than 100 cfu/mL. In addition, the Refractive index in series [10] was 1,3432.
In turn, `O` [Water, reference compound] gave a contact angle in [3] (setting [14]) of 92.5 °. Besides, in series [8], the “droplet volume, Glass pipette” value was 31.3 ± 1.4 µL; the “droplet weight, Glass pipette” value was found to be 31.2 ± 1.4 mg; the “droplet volume, Injection needle” value was 11.1 ± 0.9 µL; the “droplet weight, Injection needle” value came out at 11.0 ± 0.9 mg. Moreover, in series [8], the “droplet volume, Eye dropper” value was 36.1 ± 2.2 µL and the “droplet weight, Eye dropper” value is given as 36.0 ± 2.2 mg. The Refractive index in series [11] is listed as 1.333.
Turning to `CC(C)OC(=O)CCC/C=C\C[C@@H]1[C@@H](CC[C@@H](O)CCc2ccccc2)[C@H](O)C[C@@H]1O` [latanoprost, isopropyl-(Z)-7[(1R,2R,3R,5S)3,5-dihydroxy-2-[(3R)-3-hydroxy-5-phenylpentyl]cyclopentyl]-5-heptenoate], the solubility in water entry in series [1] is listed as “practically insoluble”. Also, the solubility in [12] was 57 µg/mL.
For `CC(C)OC(=O)CCCC=CCC1C(O)CC(O)C1C=CC(O)COc1cccc(C(F)(F)F)c1` (stereo not drawn) [travoprost, propan-2-yl 7-[3,5-dihydroxy-2-[3-hydroxy-4-[3-(trifluoromethyl)phenoxy]-but-1-enyl]-cyclopentyl]hept-5-enoate], the solubility in water entry in series [1] was “practically insoluble”.
As for `CCCCCCCC(=O)CC[C@@H]1[C@@H](C/C=C\CCCC(=O)O)[C@@H](O)C[C@H]1O` [unoprostone], the solubility in water result in series [1] is reported as “practically insoluble”.
On to hyaluronic acid [HA], for which the “morphological and histological evaluation of cornea” value in series [13] (at end of test) is “entirely clear at the end of the tests, with healthy and smooth surface morphology”. In addition, in series [13] (before the test, separate runs), the “Initial size of corneal lesions” value is 13.22 mm^2 and 16.03 mm^2 and 14.87 mm^2. In addition, the “healing of corneal lesions” value in [13] (ex-vivo rabbit eye, 3 days, fluorescein staining) is recorded as “Substantial healing”. Further, in [13] (final vs initial size, 3 days, separate runs), the “Change of lesion size” value was −97.3% and −98.5% and −100%.

Source of the values: US11324757B2, “Pharmaceutical composition for treatment of increased intraocular pressure” (NOVALIQ GMBH, priority 2010, dated 2022).
